Test results taken from patent US20230235374A1, “High Throughput Assays for Detecting Translation Readthrough Inducers” (The Trustees of the University of Pennsylvania, priority 2021, published 2023).

How the values were obtained:
Type in all cases: binding, shrimp (Artemia salina)
[1] = tested on: rRNA fragments I-IV of Stop-POST5; experiment: RNaseH fragment assay, Stop-POST5
Protocol: (§1) RNaseH Fragment Assay. Total RNA was prepared from the ^3H-AzAt photoaffinity labeled ribosome by phenol-chloroform extraction. RNA: DNA duplexes were formed by incubating total RNA (0.2 μM) with an oligonucleotide pair (1 μM of each, sequences shown Table 1), flanking a specific RNA region, in 22.8 μL of water at 95° C. for 2 min, followed by annealing at 50° C. for 30 s and quenching on ice. Six units (1.2 μL) of RNase H (NEB) and 6 μl of 5×RNase H Reaction Buffer were next added to the RNA: DNA duplex and incubated at 37° C. for 1 hour, followed by phenol-chloroform extraction of RNA. The digested RNA was separated on 12% TBE-Urea PAGE gel, and the target band along with the adjacent upper and bottom gels were sliced by a 2 mm gel cutter. The gel slices were crushed and the ^3H labeled rRNA fragment was extracted in water by vigorously shaking at 70° C. for 30 min, or by overnight extraction in elution buffer (0.3M sodium acetate, 0.25% SDS, 1 mM EDTA). The slurry was removed by centrifugation and the eluted ^3H labeled rRNA in the supernatant was quantified. The stoichiometry of AzAt photoincorporation was calculated based on a gel recovery yield of 20±2%, determined using an authentic sample of [^3H]-Gln-tRNA^Gln.
(§2) Testing the functional pertinence of AzAt photolabeling of 18S A1195, 28S-A3093, 28S-A2672, and 28S-2669. An RNAse H fragment assay was employed to determine whether the potential functionally significant sites identified by LASER-seq correspond to ataluren binding sites relevant for termination activity. In this assay, oligonucleotide hybridization, RNase H digestion and polyacrylamide gel electrophoresis (PAGE) were used to determine the stoichiometry of [^3H]-AzAt photoincorporation into the three rRNA fragments that together include the four nucleotides of interest: Fragment I, 18S-A1195; Fragment II, 26S-A3093; Fragment III, 26S-A2669 and 26S-A2672 (Table 5). The separate addition of four potential competitors of AzAt binding (eRF1 alone, the stably bound eRF1.eRF3.GDPNP complex, ataluren, and the ataluren-like TRID GJ072) was used to test how these affected such photoincorporation. These experiments, the results of which are summarized in Table 5, were performed at two different AzAt concentrations. eRF1 and eRF1.eRF3.GDPNP effects were measured using 300 μM AzAt, paralleling the LASER-Seq PAL experiments.

[2] = tested on: rRNA fragments I-IV of 80S-IRES; experiment: RNaseH fragment assay, 80S-IRES
Protocol: as §1, §2

[3] = tested on: Small RNAs within Stop-POST5 complex; experiment: AzAt photoincorporation into small RNAs (urea-PAGE, RNAse H fragments)
Protocol: FIG. 11 illustrates 8% Urea-PAGE resolution of small RNAs.
Photoaffinity labeling with [^3H]-AzAt. Samples in Buffer 4, typically 20 μL, were incubated in the dark (20 min for Stop-POST5 and 80S-IRES complexes, 2 min for release factors) with various concentrations of [^3H]-AzAt at 37° C., transferred to a UV-transparent cuvette which was covered with parafilm to prevent evaporation, and irradiated in a Rayonet photochemical reactor equipped with 300 nm UV lamps for 5 min at room temperature. This was followed by quenching with 2 mM DTT at 37° C. for 5 min under ambient light. The irradiation time gave complete photolysis of the phenyl azide moiety in AzAt. Photolysis was also complete at 5 min in the presence of 1 mM ataluren, ruling out internal filtering effects.
Stop-POST5 and 80S-IRES complexes. 1 μM solutions of either Stop-POST5 or 80S-S.IRES, determined by A260, were photolabeled by [^3H]-AzAt. The sample was then either directly purified by ultracentrifugation through a sucrose cushion to determine the photoincorporation stoichiometry in the complex, or subjected to phenol/chloroform extraction to determine the photoincorporation stoichiometry in the total RNA. To determine the photoincorporation background arising from incomplete removal of noncovalently bound photolyzed AzAt, AzAt was prephotolysed for 5 min before adding to the complex, followed by the 20 min incubation in dark at 37° C. and subsequent sucrose cushion purification or RNA extraction as described above.
as §1
Small RNAs. AzAt photoincorporation into the 4 small RNAs (CrPV-IRES, 5.8S rRNA, 5S rRNA, and tRNA) contained within POST5 was examined by one-dimensional (1D) urea-PAGE analysis, by RNA-Seq, and by RNAse H fragment assay (FIG. 11).

[4] = Stop-POST5, PAL, 300 μM AzAt, alone or plus competing ligand named as label
[5] = 80S-IRES, PAL, 300 μM AzAt, alone or plus competing ligand named as label
[6] = PAL, 300 μM AzAt, alone or plus competing ligand named as label

- Photoincorporation yields into RNAse H Fragment IV: 26S 1413-1476 ([1]; Stop-POST5, PAL, 300 μM AzAt, alone or plus competing ligand named as label (eRF1 2 μM, eRF3 4 μM, GDPNP 1 mM)): 0.20 ± 0.01%
- Photoincorporation yields into RNAse H Fragment IV: 26S 1413-1476 ([2]; 80S.IRES, PAL, 300 μM AzAt, alone or plus competing ligand named as label): 0.30 ± 0.03%
- effect on AzAt labeling of CrPV-IRES ([3]; 300 μM AzAt): partial but significant reduction
- Photoincorporation yields into CrPV-IRES nts1-155 ([3]; PAL, 300 μM AzAt, alone (AzAt) or plus competing ligand named as label (eRF1 2 μM, eRF3 4 μM, GDPNP 1 mM)): 4.6 ± 1.4 mole %
- Photoincorporation yields into 5S rRNA [3, 6]: 1.3 ± 0.2 mole %
- Photoincorporation yields into 5.8S rRNA [3, 6]: 0.80 ± 0.02 mole %
- Photoincorporation yields into CrPV-IRES All [3, 6]: 5.4 ± 0.6 mole %
- Photoincorporation yields into CrPV-IRES nts156-221 [3, 6]: 2.9 ± 0.6 mole %
- Photoincorporation yields into CrPV-IRES nts222-278 [3, 6]: 0.08 ± 0.11 mole %
- Photoincorporation yields into tRNA^Gln [3, 6]: 2.2 ± 0.2 mole %
- effect on AzAt labeling of CrPV-IRES fragments 1-155 and 156-221 ([3]; RNAse H fragment assay): Only minor decreases
Substance: eRF1/eRF3/GDPNP: stably bound ternary complex of eRF1, eRF3 and GDPNP used as competing ligand
- Photoincorporation yields into 26S-A2669:A2672/ III: 26S 2638-2702 [1, 4]: 0.19 ± 0.02 mole %
- Photoincorporation yields into 26S-A3093/ II: 26S 3069-3113 [1, 4]: 0.18 ± 0.10 mole %
- Photoincorporation yields into 18S A1195/ I: 18S 1151-1206 ([1]; Stop-POST5, PAL, 300 μM AzAt, alone or plus competing ligand named as label (eRF1 2 μM, eRF3 4 μM, GDPNP)): 0.07 ± 0.03 mole %
- effect on AzAt photoincorporation into Fragments I, II, and III ([1]; Stop-POST5 complex): strongly inhibited
- Photoincorporation yields into 18S A1195/ I: 18S 1151-1206 [2, 5]: 0.56 ± 0.06 mole %
- Photoincorporation yields into 26S-A2669:A2672/ III: 26S 2638-2702 [2, 5]: 0.94 ± 0.23 mole %
- Photoincorporation yields into 26S-A3093/ II: 26S 3069-3113 [2, 5]: 0.55 ± 0.12 mole %
- effect on AzAt photoincorporation into Fragment I ([2]; 80S.IRES complex): only partial inhibition
- effect on AzAt photoincorporation into Fragments II and III ([2]; 80S.IRES complex): essentially no inhibition
